Patent EP1082127B1 (WARNER-LAMBERT COMPANY LLC, priority 1998, dated 1999)

Assays:
[1] = biological target: T1, ICE (Homo sapiens, UniProt P29466); test: ICE inhibition, Ki determination (fluorogenic substrate Ac-Tyr-Val-Ala-Asp-AMC); assay type: biochemical; conditions: 15 µM Ac-Tyr-Val-Ala-Asp-AMC, 0.5 nM enzyme, 30°C, reversible competitive model
T1 sequence (P29466 120-297 limits assumed): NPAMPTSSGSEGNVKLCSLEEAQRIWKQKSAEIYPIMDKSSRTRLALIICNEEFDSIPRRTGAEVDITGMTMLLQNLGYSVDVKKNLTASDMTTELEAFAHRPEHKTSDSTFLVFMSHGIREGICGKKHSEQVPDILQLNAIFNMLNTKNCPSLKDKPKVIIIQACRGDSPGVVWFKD
T1 sequence (P29466 317-404 limits assumed): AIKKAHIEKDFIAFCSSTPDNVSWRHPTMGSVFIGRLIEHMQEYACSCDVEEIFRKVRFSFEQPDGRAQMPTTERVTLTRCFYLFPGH
Experimental: Serial dilutions of each compound of the invention are prepared using an initial 8-fold dilution of a DMSO stock into HGE (100 mM HEPES, 20% glycerol v/v, 0.5 mM EDTA), followed by seven serial 2-fold dilutions into HGE + 12.5% DMSO. Ten microliters of diluted stocks or of vehicle (HGE + 12.5% DMSO) are placed in triplicate onto a 96-well microtiter plate. Enzyme is diluted into assay buffer (HGE, 5 mM DTT, 15 µM Ac-Tyr-Val-Ala-Asp-AMC; 0.5 nM final enzyme concentration, pre-warmed to 30°C), and this reaction mixture is added to the plate at 90 µL/well. Substrate hydrolysis is monitored for 300 seconds at 30°C using 385 and 460 nm excitation and emission filters, respectively. Triplicate curves are averaged, and slopes are evaluated by linear regression. To evaluate Ki, plots of percent inhibition vs inhibitor concentration are fit by non-linear regression to a reversible, competitive model: [formula] where the competition factor is (1 + [S]/KM) = 2.

[2] = biological target: T1, ICE; test: ICE Colorimetric Dose-Response (IC50) Assay; assay type: biochemical; conditions: 60 minutes preincubation, 50 µM Ac-Tyr-Val-Ala-Asp-pNA, 25°C
Experimental: (§1) Diluted inhibitor stocks are prepared by two-fold serial dilution from a primary stock whose concentration is selected (based on screening results or on prior attempts at IC50 evaluation) to achieve approximately 95% inhibition in the most concentrated well. Aliquots of each dilution are transferred to a microtitre plate in triplicate.
(§2) ICE enzyme is diluted to approximately 24 nM in HGE buffer (100 mM Hepes pH 7.5, 0.5 mM EDTA, 20% glycerol, 0.1% Bovine Serum Albumin (BSA), and activated by adding dithiothreitol (DTT) to a final concentration of 5 mM. The activated enzyme is then aliquoted into wells containing inhibitor or vehicle, and the plate is preincubated for 60 minutes at ambient temperature. Substrate (Ac-Tyr-Val-Ala-Asp-pNA) is added to each well to a final concentration of 50 µM, and plates are placed in the microtitre plate-reader thermostated to 25°C. Beginning 5 minutes after addition of substrate, absorbance (405 nm) of wells is monitored for 1 hour, and activity is calculated as the mean rate of change in absorbance during this interval.

[3] = tested on: IL-1β production in human peripheral blood mononuclear cells (PBMCs); test: PBMC Cellular Assay - IC50 Determinations (LPS-stimulated IL-1β production, ELISA); assay type: cell-based; conditions: human PBMCs stimulated overnight with 10 ng/mL LPS, mature IL-1β by ELISA
Source text: Further evidence that compounds of Formula I are inhibitors of ICE is provided by their ability to inhibit IL-1β production in human peripheral blood mononuclear cells (PBMCs) as described herein. PBMCs are isolated from heparinized blood by centrifugation over a ficoll cushion, then washed three times with phosphate-buffered saline. PBMCs are suspended in a medium containing RPMI 1640 with glutamine, penicillin, streptomycin, and 2% human AB serum, then plated at 10^6 cells per well in 96-well flat bottom plates. PBMCs are stimulated overnight with 10 ng/mL of lipopolysaccharide (LPS, E. coli strain 0111:B4; Calbiochem) in the presence or absence of a compound of Formula I. Medium is harvested, and the level of mature IL-1β was determined using an ELISA kit from R&D Systems. Cells were cultured for an additional 4 hours in the presence of 3-(4,5-dimethylthiazol-2-yl)-2,5-diphenyltetrazolium bromide (MTT) to determine viability.

[4] = biological target: T2, Ich-2 enzyme (Homo sapiens, UniProt P49662); test: Ich-2 Colorimetric Dose-Response (IC50) Assay; assay type: biochemical; conditions: enzyme 64 nM, 60 µM Ac-Leu-Glu-Val-Asp-pNA; read-out: ICH2 IC50 (Caspase 4)
T2 sequence (P49662 81-270 limits assumed): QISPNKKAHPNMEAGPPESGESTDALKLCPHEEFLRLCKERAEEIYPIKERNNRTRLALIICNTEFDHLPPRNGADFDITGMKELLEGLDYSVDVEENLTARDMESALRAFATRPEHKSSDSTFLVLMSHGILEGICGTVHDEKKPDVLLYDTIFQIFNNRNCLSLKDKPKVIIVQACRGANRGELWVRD
T2 sequence (P49662 290-377 limits assumed): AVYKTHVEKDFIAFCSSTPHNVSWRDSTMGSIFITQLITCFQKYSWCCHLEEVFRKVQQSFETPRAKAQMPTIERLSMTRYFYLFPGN
Experimental: as §1, §2
Inhibition of Ich-2 enzyme is assayed as described above for ICE, except that enzyme is used at 64 nM, and 60 µM of the Ich-2-specific substrate Ac-Leu-Glu-Val-Asp-pNA is used instead of the ICE substrate Ac-Tyr-Val-Ala-Asp-pNA.

Ki [1]	IC50 [2]	IC50 [4]	SMILES	IC50 [3]
106 nM	790 nM	3.31 µM	CC(C)C(CC(N)=O)C(=O)NC(CC(=O)O)C(=O)CNS(=O)(=O)CC12CCC(CC1=O)C2(C)C (stereo not drawn) [Example 2, 3-(2-Carbamoylmethyl-3-methyl-butyrylamino)-5-(7,7-dimethyl-2-oxo-bicyclo[2.2.1]hept-1-ylmethanesulfonylamino)-4-oxo-pentanoic acid]	6.25 µM
16.6 nM	115 nM	1.1 µM	CC(C)C(CC(=O)NCCc1nnn[nH]1)C(=O)NC(CC(=O)O)C(=O)CNS(=O)(=O)CC12CCC(CC1=O)C2(C)C (stereo not drawn) [Example 34, 5-(7,7-Dimethyl-2-oxo-bicyclo[2.2.1]hept-1-ylmethanesulfonylamino)-3-(3-methyl-2-{[2-(1H-tetrazol-5-yl)-ethylcarbamoyl]-methyl}-butyrylamino)-4-oxo-pentanoic acid]	2.6 µM
115 nM	444 nM	20.7 µM	CC(C)[C@H](CC(=O)NCCCc1ccccc1)C(=O)N[C@H](C=O)CC(=O)O [Example 7, (S,S)-3-{3-Methyl-2-[(3-phenyl-propylcarbamoyl)-methyl]-butyrylamino}-4-oxo-butyric acid]	6 µM
6.5 nM	23 nM	3.09 µM	CC(=O)c1ccc2[nH]cc(CCNC(=O)CC(C(=O)NC(CC(=O)O)C(=O)CNS(=O)(=O)CC34CCC(CC3=O)C4(C)C)C(C)C)c2c1 (stereo not drawn) [Example 33, 3-(2-{[2-(5-Acetyl-1H-indol-3-yl)-ethylcarbamoyl]-methyl}-3-methyl-butyrylamino)-5-(7,7-dimethyl-2-oxo-bicyclo[2.2.1]hept-1-ylmethanesulfonylamino)-4-oxo-pentanoic acid]	1.6 µM
28 nM	130 nM	209 µM	CC(C)C(CC(=O)N(C)CCc1cn(C)c2ccccc12)C(=O)NC(C=O)CC(=O)O (stereo not drawn) [Example 21, 3-[3-Methyl-2-({methyl-[2-(1-methyl-1H-indol-3-yl)-ethyl]-carbamoyl}-methyl)-butyrylamino]-4-oxo-butyric acid]	7.5 µM
336 nM	3550 nM	9.02 µM	CC(C)C(CC(=O)NCCc1ccccc1)C(=O)NC(CC(=O)O)C(=O)CNS(=O)(=O)CCc1ccccc1 (stereo not drawn) [Example 5, 3-[3-Methyl-2-(phenethylcarbamoyl-methyl)-butyrylamino]-4-oxo-5-(2-phenyl-ethanesulfonylamino)-pentanoic acid]	35 µM
2.5 nM	5.1 nM	1.47 µM	CC(C)C(CC(=O)NCCc1c[nH]c2ccccc12)C(=O)NC(CC(=O)O)C(=O)CNS(=O)(=O)CC12CCC(CC1=O)C2(C)C (stereo not drawn) [Example 16, 5-(7,7-Dimethyl-2-oxo-bicyclo[2.2.1]hept-1-ylmethanesulfonylamino)-3-(2-{[2-(1H-indol-3-yl)-ethylcarbamoyl]-methyl}-3-methyl-butyrylamino)-4-oxo-pentanoic acid]	0.35 µM
32.9 nM	79 nM	4.68 µM	CC(C)C(CC(=O)NCCCc1ccc(O)cc1)C(=O)NC(CC(=O)O)C(=O)CNS(=O)(=O)CC12CCC(CC1=O)C2(C)C (stereo not drawn) [Example 17, 5-(7,7-Dimethyl-2-oxo-bicyclo[2.2.1]hept-1-ylmethanesulfonylamino)-3-{3-methyl-2-[[3-(4-hydroxyphenyl)-propylcarbamoyl]-methyl]-butyrylamino}-4-oxo-pentanoic acid]	2.25 µM
6.1 nM	254 nM	5.58 µM	CC(C)C(CC(=O)NCCCc1cccc2ccccc12)C(=O)NC(CC(=O)O)C(=O)CNS(=O)(=O)CC12CCC(CC1=O)C2(C)C (stereo not drawn) [Example 28, 5-(7,7-Dimethyl-2-oxo-bicyclo[2.2.1]hept-1-ylmethanesulfonylamino)-3-{3-methyl-2-[(3-naphthalen-1-yl-propylcarbamoyl)-methyl]-butyrylamino}-4-oxo-pentanoic acid]	0.55 µM
22.9 nM	227 nM	38 µM	CC(C)C(CC(=O)N(C)CCn1cnc2ccccc21)C(=O)NC(C=O)CC(=O)O (stereo not drawn) [Example 57, 3-(2-{[(2-Benzoimidazol-1-yl-ethyl)-methyl-carbamoyl]-methyl}-3-methyl-butyrylamino)-4-oxo-butyric acid]	3.75 µM
23.6 nM	89.4 nM	3.01 µM	CC(C)C(CC(=O)NCCc1ccc2ccccc2c1)C(=O)NC(CC(=O)O)C(=O)CNS(=O)(=O)CC12CCC(CC1=O)C2(C)C (stereo not drawn) [Example 18, 5-(7,7-Dimethyl-2-oxo-bicyclo[2.2.1]hept-1-ylmethanesulfonylamino)-3-{3-methyl-2-[(2-naphthalen-2-yl-ethylcarbamoyl)-methyl]-butyrylamino}-4-oxo-pentanoic acid]	2.05 µM
441 nM	2050 nM	13.1 µM	CC(C)C(CC(=O)NO)C(=O)NC(CC(=O)O)C(=O)CNS(=O)(=O)CC12CCC(CC1=O)C2(C)C (stereo not drawn) [Example 15, 5-(7,7-Dimethyl-2-oxo-bicyclo[2.2.1]hept-1-ylmethanesulfonylamino)-3-(2-hydroxycarbamoylmethyl-3-methyl-butyrylamino)-4-oxo-pentanoic acid]	17.5 µM
23.4 nM	53 nM	4.22 µM	CC(C)C(CC(=O)NCCOc1ccccc1)C(=O)NC(CC(=O)O)C(=O)CNS(=O)(=O)CC12CCC(CC1=O)C2(C)C (stereo not drawn) [Example 9, 5-(7,7-Dimethyl-2-oxo-bicyclo[2.2.1]hept-1-ylmethanesulfonylamino)-3-{3-methyl-2-[(2-phenoxy-ethylcarbamoyl)-methyl]-butyrylamino}-4-oxo-pentanoic acid]	2.1 µM
58 nM	440 nM	15.7 µM	CC(C)C(CC(=O)N(C)CCc1ccccc1)C(=O)NC(CC(=O)O)C(=O)CNS(=O)(=O)CC12CCC(CC1=O)C2(C)C (stereo not drawn) [Example 11, 5-(7,7-Dimethyl-2-oxo-bicyclo[2.2.1]hept-1-ylmethanesulfonylamino)-3-{3-methyl-2-[(methyl-phenethyl-carbamoyl)-methyl]-butyrylamino}-4-oxopentanoic acid]	5.5 µM
1600 nM	14500 nM	89 µM	CC(CC(=O)NCCc1ccccc1)C(=O)NC(CC(=O)O)C(=O)CNS(=O)(=O)CCc1ccccc1 (stereo not drawn) [Example 1, 3-(2-Methyl-3-phenethylcarbamoyl-propionylamino)-4-oxo-5-(2-phenylethanesulfonylamino)-pentanoic acid]	82.5 µM
